From US20230338347A1, “New Use of Inhibitors of the Notch Signalling Pathway” (Cellestia Biotech AG, priority 2020, published 2023)
Structures can show the parent of a compound that is named as a salt.

Key:
NOTCH target genes [1] = experiment: NOTCH target gene expression in whole blood of Phase 1 patients (Nanostring); assay type: in vivo; details: Homo sapiens, 600 mg dose group, CCND3, HEY1, IL7Rα, NOTCH1, NOTCH2, read-out: Inhibition range, NOTCH target down regulation
Procedure: In addition to hair follicles, gene expression profiling to measure changes in NOTCH target genes was also performed in whole blood as an alternative surrogate tissue.
Whole blood samples for gene expression analysis were collected in PAXgene Blood RNA Tubes and RNA extracted following their standard Blood RNA Kit for silica-membrane-based RNA isolation and purification (Beckton Dickinson). RNA samples were tested for gene expression profiling on a Nanostring platform.
(§1) Table 1: NOTCH target down regulation in hair follicles and blood cells from Phase 1 patients. Target gene down regulation (CCND3, cyclin-D3; HES1, Hairy and enhance of split-1; HES4, Hairy and enhance of split-4; HESS, Hairy and enhance of split-5; HEY1, hes related family bHLH transcription factor with YRPW motif1; HEY2; hes related family bHLH transcription factor with YRPW motif 2; HEYL, hes-related family bHLH transcription factor with YRPW motif-like; IL7R-α, Interleukin-7 receptor subunit alpha; NOTCH1; NOTCH2; NRARP (NOTCH Regulated Ankyrin Repeat Protein): […]

NOTCH target genes [2] = experiment: NOTCH target gene expression in hair follicles of Phase 1 patients (Nanostring); assay type: in vivo, human; details: Homo sapiens, hair follicle, read-out: Inhibition range, NOTCH target down regulation
From the text: Hair follicles were obtained at pre-defined time points to measure changes in NOTCH target genes expression by 6-(4-Tert-Butylphenoxy)Pyridin-3-Amine treatment. NOTCH target gene down-regulation in hair follicles has been reported to be a robust and indicative biomarker that correlates with both clinical efficacy and the incidence of DLTs (Tanis K Q, et al. Clin Pharmacol Ther 2016; 99(4):370-80; Cook N, et al. BJC 2018; 118(6):793-801).
Between 5 to 10 hairs were plucked to extract the complete and undamaged hairbulb (full hair follicle), and processed as described in Camidge D R, et al. Br J Cancer 2005; 92:1837-41 and Bradley B J, et al. Mol EcolNotes 2005; 5:961-4. RNA concentration was measured by Qubit (RNAHighSensitivity), and RNA integrity was evaluated on a RNA 6000 Pico chip. RNA samples were tested for gene expression profiling on a Nanostring platform.
as §1

[3] = Phase I/IIA dose escalation: visual symptoms (eye-related AE) per dose group; assay type: in vivo, human
Procedure: The dosing will be 15, 30, 60, 120, 170, 250, 400, or 600 mg of the 6-(4-Tert-Butylphenoxy)Pyridin-3-Amine monohydrochloride salt or higher per day or alternatively 20, 40, 60, 120, 170, 250, 400, or 600 mg of the 6-(4-Tert-Butylphenoxy)Pyridin-3-Amine monohydrochloride salt or higher per day. Dosing of 15, 30, 60, 120, 170, 250, 400, or 600 mg of the 6-(4-Tert-Butylphenoxy)Pyridin-3-Amine monohydrochloride salt corresponds to dosing of 13, 26, 52, 104, 148, 217, 348, or 522 mg of 6-(4-Tert-Butylphenoxy)Pyridin-3-Amine (free base). Dosing of 20, 40, 60, 120, 170, 250, 400, or 600 mg of the 6-(4-Tert-Butylphenoxy)Pyridin-3-Amine monohydrochloride salt corresponds to dosing of 17, 35, 52, 104, 148, 217, 348, or 522 mg of 6-(4-Tert-Butylphenoxy)Pyridin-3-Amine (free base). For this study, 6-(4-Tert-Butylphenoxy)Pyridin-3-Amine monohydrochloride salt was formulated into a capsule having a drug load of 5, 10, 20, 50 and 100 mg, respectively intended to be administered orally. • Patients will meet the following criteria:
In the dose escalation cohort, patients in dose group (DG) 4 receiving 120mg of 6-(4-Tert-Butylphenoxy)Pyridin-3-Amine monohydrochloride salt and patients in higher dose groups reported visual symptoms with increasing incidence. It is believed that the occurrence of visual symptoms is a pharmacodynamic effect of 6-(4-Tert-Butylphenoxy)Pyridin-3-Amine. This makes a dose of 120 mg and higher of the 6-(4-Tert-Butylphenoxy)Pyridin-3-Amine monohydrochloride salt the therapeutic dose of choice.

Compound: CC(C)(C)c1ccc(Oc2ccc(N)cn2)cc1 [6-(4-Tert-Butylphenoxy)Pyridin-3-Amine monohydrochloride]
- inhibition at 600 mg (NOTCH target genes [1]): ≤ 50%
- inhibition at 60 mg (NOTCH target genes [2]; 60 mg dose group, HES4, HES5, NRARP): ≤ 80%
- inhibition at 120 mg (NOTCH target genes [2]; 120 mg dose group, CCND3, HES4, HES5, HEYL, HEY2): ≤ 95%
- inhibition at 170 mg (NOTCH target genes [2]; 170 mg dose group, HES1): ≤ 75%
- inhibition at 250 mg (NOTCH target genes [2]; 250 mg dose group, CCND3, HES1, HEY2, NRARP): ≤ 80%
- Eye-related AE, % on total pts per DG ([3]; DG4 (120 mg)): 43%
- dose at and above which visual symptoms were reported (increasing incidence) ([3]; DG4 and higher dose groups, once daily oral): ≥ 120 mg
- Eye-related AE, % on total pts per DG ([3]; DG5 (170 mg)): 67%
- Eye-related AE, % on total pts per DG ([3]; DG6 (250 mg)): 75%
- Eye-related AE, % on total pts per DG ([3]; DG7 (400 mg)): 67%
- Eye-related AE, % on total pts per DG ([3]; DG8 (600 mg)): 67%
- Adaptative visual difficulty, #AEs ([3]; all dose groups): 1
- Blurred vision, #AEs ([3]; all dose groups): 6
- Eye disorder, #AEs ([3]; all dose groups): 2
- Eye-related AE Total, #AEs ([3]; all dose groups): 26
- Intermittent color vision deficiency/ Intermittent blurred vision, #AEs ([3]; all dose groups): 2
- Photophobia, #AEs ([3]; all dose groups): 2
- Photopsy, #AEs ([3]; all dose groups): 3
- Transient defect in accommodation to dim light, #AEs ([3]; all dose groups): 7
- Visual alteration, #AEs ([3]; all dose groups): 2
- Visual disturbance in light exposure, #AEs ([3]; all dose groups): 1
